Data: patent US12173088B2, “Anti-microbial peptides” (priority 2018, dated 2024)
Converted amounts (≈) assume the structure as drawn. Where two headings read alike, the source gives them in different places. Square brackets hold non-standard residues; d marks the D form. Peptide text beside a SMILES is read from it. Orn = NCCC[C@H](N)C(=O)O

Tests used:
[1] = test system: S. aureus USA300; assay: microbe, parasite or virus in culture; format: cell-based, Staphylococcus aureus
Source text: The bacterial strains used include the Gram-positive strains Staphylococcus aureus USA300 LAC, S. epidermidis 1457, and Bacillus subtilis 168, as well as the Gram-negative isolates Escherichia coli K12 and Acinetobacter baumannii B2367-12. Additional, drug resistance strains include Gram-positive Enterococcus faecium V286-17 (VRE) and S. aureus M838-17 (MRSA) and Gram-negative E. coli E423-17, E. coli E416-17 (ampC), and P. aeruginosa E411-17. Bacteria were cultivated in tryptic soy broth (TSB) (BD Bioscience, MD).
(§1) The antibacterial activity of peptides was evaluated using a standard broth microdilution protocol with minor modifications as described (Mishra, et al. (2012) J. Am. Chem. Soc., 134:12426-12429). In brief, logarithmic phase bacterial cultures (i.e., optical density at 600 nm≈0.5) were diluted to OD600 0.001 and partitioned into a 96-well polystyrene microplate at 90 μL per well. After treatment with 10 μL of peptide solutions two fold diluted to various concentrations, microplates were incubated at 37° C. overnight and read on a ChroMate® 4300 Microplate Reader at 630 nm (GMI, Ramsey, MN). […] To study the influence of medium conditions on the antimicrobial activity of peptides against S. aureus USA300, up to 200 mM sodium chloride (NaCl), 2 mM of calcium chloride, 5-10% of human serum, mouse plasma, fluid, or supernatants of tissue homogenates were included into the assays.
(§2) The bacterial strains used include the Gram-positive bacteria methicillin-resistant Staphylococcus aureus USA300, Enterococcus faecium V286-17 (VRE), S. aureus M838-17 (MRSA) and Gram-negative bacteria E. coli E423-17, E416-7 (ampC), P. aeruginosa E411-17, PA01, K. pneumoniae E406-17, ATCC13883, and A. baumannii B26-16. Bacteria were cultivated in tryptic soy broth (TSB) from BD Bioscience.
(§3) The antibacterial activity of peptides was evaluated using a standard broth microdilution protocol with minor modifications (Mishra, et al. (2017) Acta Biomater., 49:316-328). In brief, logarithmic phase bacterial cultures (i.e., optical density at 600 nm≈0.5) were diluted to 0.001 OD and aliquoted 90 μL per well into a 96-well polystyrene microplate. Added 10 μL peptides per well with various concentrations, plates were incubated at 37° C., overnight. Post incubation the plates are read at 630 nm using a ChroMate® Microplate Reader (GMI). […] To study the influence of medium conditions on the antimicrobial activity of peptides against S. aureus USA300 at different pHs (6.8, 7.2, and 8.0), 150 mM sodium chloride (NaCl), 5-10% of human serum, mouse plasma, and peritoneal fluid were included into the assays.

[2] = test system: P. aeruginosa PAO1; format: cell-based, Pseudomonas aeruginosa
Method: as §1, §2, §3

[3] = test system: E. coli ATCC 25922; format: cell-based, Escherichia coli
Method: as §1, §3

[4] = test system: K. pneumoniae ATCC 13883; format: cell-based, Klebsiella pneumoniae
Method: as §1, §2, §3

[5] = test system: human red blood cells (hRBCs); assay: Hemolytic assay; format: cell-based
Method: Briefly, human red blood cells (hRBCs) were washed three times with phosphate buffer saline (PBS) and diluted to a 2% solution (v/v). After peptide treatment, incubation at 37° C. for one hour, and centrifugation at 5000 rpm for 10 minutes, aliquots of the supernatant were carefully transferred to a fresh 96-well microplate. The amount of hemoglobin released was measured at 545 nm. The percent lysis was calculated by assuming 100% release when human blood cells were treated with 2% Triton™ X-100, and 0% release when incubated with PBS buffer. The peptide concentration that caused 50% lysis of hRBCs is defined as HL50. The cell selectivity index (CSI) was calculated as the ratio between HL50 and MIC of the corresponding peptide against a select pathogenic species.
Hemolytic assays of peptides were performed as described (Mishra, et al. (2017) Acta Biomater., 49:316-328). Briefly, human red blood cells (hRBCs) obtained from UNMC Blood Bank. The blood washed 3× with isotonic saline (0.9% NaCl) and diluted to 2% blood cells (v/v). Peptide horine and verine at various concentrations were added into the 2% blood cells and incubated at 37° C. for 1 hour. Post incubation the plates were spun at 2000 rpm for 10 minutes, aliquots of the supernatant were carefully transferred to a fresh 96-well microplate. The amount of cells lysed is proportional to the hemoglobin released and measured at 545 nm using a ChroMate® microplate reader. The percent lysis was calculated by assuming 100% release when human blood cells were treated with 1% Triton™ X-100, and 0% release when incubated with PBS. The peptide concentration that caused 50% lysis of hRBCs is defined as HL50.

| SMILES | MIC S. aureus USA 300 ([1]; USA300) | MIC P. aeruginosa PAO1 ([2]; PAO1) | MIC E. coli ATCC 25922 ([3]; ATCC 25922) | MIC K. pneumoniae ([4]; ATCC 13883) | MIC K. pneumonia ATCC 13883 ([4]; ATCC 13883) | HL50 [5] | MIC S. aureus USA 300 ([1]; Table 2, peptides amidated, quantified by UV) | MIC P. aeruginosa PAO1 ([2]; Table 2, quantified by UV) | MIC E. coli ATCC 25922 ([3]; Table 2, quantified by UV) | MIC K. pneumoniae ([4]; Table 2, quantified by UV) | HL50 ([5]; Table 2, lysis of 50% hRBCs (2% v/v)) |
| --- | --- | --- | --- | --- | --- | --- | --- | --- | --- | --- | --- |
| CC(C)C[C@H](NC(=O)[C@H](CC(C)C)NC(=O)[C@H](CCCCN)NC(=O)CNC(=O)[C@H](CC(C)C)NC(=O)[C@H](CC(C)C)NC(=O)[C@H](CO)NC(=O)[C@H](C)NC(=O)[C@H](CC(C)C)NC(=O)[C@H](CO)NC(=O)[C@H](CC(C)C)NC(=O)[C@H](CC(C)C)NC(=O)CN)C(N)=O [DFT509, GLLSLASLLGKLL] (H-GLLSLASLLGKLL-NH2; N-terminus assumed) | 0.78 µM (≈ 1.01 µg/mL) | 6.2 to 12.5 µM | 1.5 to 3.1 µM | 3.1 µM (≈ 4.02 µg/mL) | – | 4 µM | – | – | – | – | – |
| CC(C)C[C@H](NC(=O)[C@H](CC(C)C)NC(=O)[C@H](CCCCN)NC(=O)CNC(=O)[C@H](CC(C)C)NC(=O)[C@H](CC(C)C)NC(=O)[C@H](CO)NC(=O)[C@H](CC(C)C)NC(=O)[C@H](C)NC(=O)[C@H](CO)NC(=O)[C@H](CC(C)C)NC(=O)[C@H](CC(C)C)NC(=O)CN)C(N)=O [DFT508, GLLSALSLLGKLL] (H-GLLSALSLLGKLL-NH2; N-terminus assumed) | 0.78 µM (≈ 1.01 µg/mL) | >25 µM | 3.1 µM (≈ 4.02 µg/mL) | 3.1 µM (≈ 4.02 µg/mL) | – | 6 µM | – | – | – | – | – |
| CC(C)C[C@H](NC(=O)[C@H](CC(C)C)NC(=O)[C@H](CCCCN)NC(=O)CNC(=O)[C@H](CC(C)C)NC(=O)[C@H](CO)NC(=O)[C@H](CC(C)C)NC(=O)[C@H](CO)NC(=O)[C@H](CC(C)C)NC(=O)[C@H](CC(C)C)NC(=O)CN)C(N)=O [DFT524, GLLSL-SL-GKLL] (H-GLLSLSLGKLL-NH2; N-terminus and C-terminus assumed) | >25 µM | >25 µM | >25 µM | – | >25 µM | >300 µM | – | – | – | – | – |
| CC(C)C[C@H](NC(=O)[C@H](CC(C)C)NC(=O)[C@H](CCCN)NC(=O)CNC(=O)[C@H](CC(C)C)NC(=O)[C@H](C)NC(=O)[C@H](CCCN)NC(=O)[C@H](CC(C)C)NC(=O)[C@H](C)NC(=O)[C@H](CO)NC(=O)[C@H](CC(C)C)NC(=O)[C@H](CC(C)C)NC(=O)CN)C(N)=O [DFT516, GLLSALOALGOLL] (H-GLLSAL[Orn]ALG[Orn]LL-NH2; N-terminus assumed) | 1.56 µM (≈ 1.98 µg/mL) | >25 µM | 3.1 to 6.25 µM | 3.1 µM (≈ 3.93 µg/mL) | – | 36 µM | – | – | – | – | – |
| CC(C)C[C@H](NC(=O)[C@H](CC(C)C)NC(=O)[C@H](CCCCN)NC(=O)CNC(=O)[C@H](CC(C)C)NC(=O)[C@H](C)NC(=O)[C@H](CCCN)NC(=O)[C@H](CC(C)C)NC(=O)[C@H](C)NC(=O)[C@H](CO)NC(=O)[C@H](CC(C)C)NC(=O)[C@H](CC(C)C)NC(=O)CN)C(N)=O [DFT515, GLLSALOALGKLL] (H-GLLSAL[Orn]ALGKLL-NH2; N-terminus assumed) | 1.56 µM (≈ 2 µg/mL) | >25 µM | 3.1 µM (≈ 3.97 µg/mL) | 3.1 µM (≈ 3.97 µg/mL) | – | 36 µM | – | – | – | – | – |
| CC(C)C[C@H](NC(=O)CN)C(=O)N[C@@H](CC(C)C)C(=O)N[C@@H](CO)C(=O)N[C@@H](CC(C)C)C(=O)N[C@@H](CC(C)C)C(=O)N[C@@H](CO)C(=O)N[C@@H](CC(C)C)C(=O)N[C@@H](CC(C)C)C(=O)NCC(=O)N[C@@H](CCCCN)C(=O)N[C@@H](CC(C)C)C(=O)N[C@@H](C)C(N)=O [DFT513, GLLSLLSLLGKLA] (H-GLLSLLSLLGKLA-NH2; N-terminus assumed) | – | – | – | – | – | – | 1.56 µM (≈ 2.02 µg/mL) | >25 µM | 1.5 to 3.1 µM | 12.5 to 25 µM | <3.1 µM |
| CC(C)C[C@H](NC(=O)[C@H](CC(C)C)NC(=O)[C@H](CCCCN)NC(=O)CNC(=O)[C@H](CC(C)C)NC(=O)[C@H](CC(C)C)NC(=O)[C@H](CO)NC(=O)[C@H](CC(C)C)NC(=O)[C@H](CC(C)C)NC(=O)[C@H](CO)NC(=O)[C@H](C)NC(=O)[C@H](CC(C)C)NC(=O)CN)C(N)=O [DFT507, GLASLLSLLGKLL] (H-GLASLLSLLGKLL-NH2; N-terminus assumed) | 0.78 µM (≈ 1.01 µg/mL) | >25 µM | >25 µM | >25 µM | – | <3.1 µM | – | – | – | – | – |

Second part, led by results:

| MIC S. aureus USA 300 ([1]; USA300) | MIC P. aeruginosa PAO1 ([2]; PAO1) | MIC E. coli ATCC 25922 ([3]; ATCC 25922) | MIC K. pneumoniae ([4]; ATCC 13883) | MIC K. pneumonia ATCC 13883 ([4]; ATCC 13883) | SMILES | HL50 [5] | MIC S. aureus USA 300 ([1]; Table 2, peptides amidated, quantified by UV) | MIC P. aeruginosa PAO1 ([2]; Table 2, quantified by UV) | MIC E. coli ATCC 25922 ([3]; Table 2, quantified by UV) | MIC K. pneumoniae ([4]; Table 2, quantified by UV) | HL50 ([5]; Table 2, lysis of 50% hRBCs (2% v/v)) |
| --- | --- | --- | --- | --- | --- | --- | --- | --- | --- | --- | --- |
| >25 µM | >25 µM | >25 µM | – | >25 µM | CC(C)C[C@H](NC(=O)[C@H](CC(C)C)NC(=O)[C@H](CCCCN)NC(=O)CNC(=O)[C@H](CC(C)C)NC(=O)[C@H](CO)NC(=O)[C@H](CO)NC(=O)[C@H](CC(C)C)NC(=O)CN)C(N)=O [DFT526, GL-S--SL-GKLL] (H-GLSSLGKLL-NH2; N-terminus and C-terminus assumed) | >300 µM | – | – | – | – | – |
| – | >50 µM | – | – | 25 µM (≈ 32.5 µg/mL) | CC[C@H](C)[C@H](NC(=O)[C@H](CCCNC(=N)N)NC(=O)[C@H](CCCNC(=N)N)NC(=O)[C@H](CC(C)C)NC(=O)[C@H](Cc1c[nH]c2ccccc12)NC(=O)[C@H](Cc1c[nH]c2ccccc12)NC(=O)[C@@H](N)Cc1c[nH]c2ccccc12)C(=O)N[C@@H](Cc1c[nH]c2ccccc12)C(N)=O [WW299, WWWLRRIW] (H-WWWLRRIW-NH2; N-terminus and C-terminus assumed) | 35 µM | – | – | – | – | – |
| – | 12.5 µM (≈ 15.9 µg/mL) | – | – | >25 µM | CC[C@H](C)[C@H](NC(=O)[C@H](CCCNC(=N)N)NC(=O)[C@H](CCCNC(=N)N)NC(=O)[C@H](CC(C)C)NC(=O)[C@H](CCCNC(=N)N)NC(=O)[C@H](Cc1c[nH]c2ccccc12)NC(=O)[C@@H](N)Cc1c[nH]c2ccccc12)C(=O)N[C@@H](Cc1c[nH]c2ccccc12)C(N)=O [WW302, WWRLRRIW] (H-WWRLRRIW-NH2; N-terminus and C-terminus assumed) | >200 µM | – | – | – | – | – |
| – | 25 to 50 µM | – | – | >25 µM | CC[C@H](C)[C@H](NC(=O)[C@H](CCCNC(=N)N)NC(=O)[C@H](CCCNC(=N)N)NC(=O)[C@H](CCCNC(=N)N)NC(=O)[C@H](Cc1c[nH]c2ccccc12)NC(=O)[C@H](Cc1c[nH]c2ccccc12)NC(=O)[C@@H](N)Cc1c[nH]c2ccccc12)C(=O)N[C@@H](Cc1c[nH]c2ccccc12)C(N)=O [WW303, WWWRRRIW] (H-WWWRRRIW-NH2; N-terminus and C-terminus assumed) | >200 µM | – | – | – | – | – |
